We go through 6 compounds from ChEMBL document CHEMBL1201862, “PubChem BioAssay data set” (2004).

Molecules are shown by their SMILES. Activity calls are given as the source filed them. Some results are limits rather than exact numbers.

Assay [1] addresses Transitional endoplasmic reticulum ATPase (Homo sapiens, UniProt P55072, C522A). Put plainly: C522A mutant p97 ATPase inhibitors, dose response, counter-screen for p97 inhibitor project, biochemical, luminescence (AID 1544). A general note: The purpose of a counterscreen is to sort out artefacts and off-target activity.
Assay [2] has as its target Transitional endoplasmic reticulum ATPase (Homo sapiens, UniProt P55072). Put plainly: p97 ATPase inhibitors, dose response, biochemical (AID 1534).
Assay [3] addresses T1, Sentrin-specific protease 6 (Homo sapiens, UniProt Q9GZR1).
T1 sequence (Q9GZR1 whole entry): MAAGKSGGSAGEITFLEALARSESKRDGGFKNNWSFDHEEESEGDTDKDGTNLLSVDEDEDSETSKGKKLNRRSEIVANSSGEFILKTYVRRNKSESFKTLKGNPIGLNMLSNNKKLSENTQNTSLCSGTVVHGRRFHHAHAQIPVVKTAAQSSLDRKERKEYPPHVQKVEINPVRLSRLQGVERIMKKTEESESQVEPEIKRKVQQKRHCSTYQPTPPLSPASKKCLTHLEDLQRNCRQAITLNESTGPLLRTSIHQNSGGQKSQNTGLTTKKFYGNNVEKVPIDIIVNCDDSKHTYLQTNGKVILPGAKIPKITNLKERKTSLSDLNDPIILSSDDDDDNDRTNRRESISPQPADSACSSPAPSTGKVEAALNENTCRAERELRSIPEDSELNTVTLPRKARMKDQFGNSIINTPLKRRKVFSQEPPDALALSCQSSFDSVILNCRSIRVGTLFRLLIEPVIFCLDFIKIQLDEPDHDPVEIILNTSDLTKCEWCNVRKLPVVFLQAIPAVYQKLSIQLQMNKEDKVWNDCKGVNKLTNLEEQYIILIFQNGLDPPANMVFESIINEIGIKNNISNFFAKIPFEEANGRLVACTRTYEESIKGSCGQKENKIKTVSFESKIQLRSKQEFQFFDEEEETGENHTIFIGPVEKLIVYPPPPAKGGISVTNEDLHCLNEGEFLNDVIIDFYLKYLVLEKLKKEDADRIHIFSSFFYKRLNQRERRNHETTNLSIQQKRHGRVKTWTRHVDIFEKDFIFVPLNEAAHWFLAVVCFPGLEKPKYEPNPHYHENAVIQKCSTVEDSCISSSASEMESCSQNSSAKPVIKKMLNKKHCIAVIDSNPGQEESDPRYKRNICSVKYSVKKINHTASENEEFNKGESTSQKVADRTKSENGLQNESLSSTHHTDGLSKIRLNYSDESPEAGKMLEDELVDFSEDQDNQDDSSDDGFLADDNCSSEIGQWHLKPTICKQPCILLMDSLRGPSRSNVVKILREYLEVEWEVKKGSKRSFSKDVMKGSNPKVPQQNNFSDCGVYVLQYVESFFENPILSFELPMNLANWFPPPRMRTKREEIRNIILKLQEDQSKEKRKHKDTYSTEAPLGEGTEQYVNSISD
Type of assay: functional.

The target of assay [4] is T2, Replicative DNA helicase DnaB (Mycobacterium tuberculosis, UniProt P9WMR3).
T2 sequence (P9WMR3 whole entry): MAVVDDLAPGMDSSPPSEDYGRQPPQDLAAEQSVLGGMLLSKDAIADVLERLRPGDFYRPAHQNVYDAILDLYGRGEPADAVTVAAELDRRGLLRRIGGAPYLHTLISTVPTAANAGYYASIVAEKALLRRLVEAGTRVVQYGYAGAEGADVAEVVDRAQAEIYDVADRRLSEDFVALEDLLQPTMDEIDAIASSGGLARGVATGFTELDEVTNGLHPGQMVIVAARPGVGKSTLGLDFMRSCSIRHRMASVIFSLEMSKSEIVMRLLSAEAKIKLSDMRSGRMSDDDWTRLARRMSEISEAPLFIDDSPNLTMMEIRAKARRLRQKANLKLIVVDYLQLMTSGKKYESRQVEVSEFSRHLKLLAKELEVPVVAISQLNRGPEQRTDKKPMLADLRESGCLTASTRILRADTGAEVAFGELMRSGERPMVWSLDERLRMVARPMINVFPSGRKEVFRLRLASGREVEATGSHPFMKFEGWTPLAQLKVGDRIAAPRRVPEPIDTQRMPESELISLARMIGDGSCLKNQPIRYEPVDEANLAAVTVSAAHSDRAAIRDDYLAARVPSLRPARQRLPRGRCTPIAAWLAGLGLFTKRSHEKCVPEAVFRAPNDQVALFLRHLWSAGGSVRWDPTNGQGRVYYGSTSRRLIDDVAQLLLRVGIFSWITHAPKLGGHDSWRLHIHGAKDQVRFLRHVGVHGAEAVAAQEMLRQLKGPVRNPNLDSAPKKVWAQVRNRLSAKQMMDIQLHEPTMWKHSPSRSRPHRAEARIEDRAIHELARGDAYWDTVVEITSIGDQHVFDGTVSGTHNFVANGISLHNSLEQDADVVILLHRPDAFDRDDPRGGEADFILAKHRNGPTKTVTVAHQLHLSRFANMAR
In words: DnaB intein splicing inhibitors, dose response, biochemical, cell-free fluorescence (AID 449749). In kind it is functional.

Assay [5] addresses T3, Tyrosyl-DNA phosphodiesterase 2 (Homo sapiens, UniProt O95551).
T3 sequence (O95551 whole entry): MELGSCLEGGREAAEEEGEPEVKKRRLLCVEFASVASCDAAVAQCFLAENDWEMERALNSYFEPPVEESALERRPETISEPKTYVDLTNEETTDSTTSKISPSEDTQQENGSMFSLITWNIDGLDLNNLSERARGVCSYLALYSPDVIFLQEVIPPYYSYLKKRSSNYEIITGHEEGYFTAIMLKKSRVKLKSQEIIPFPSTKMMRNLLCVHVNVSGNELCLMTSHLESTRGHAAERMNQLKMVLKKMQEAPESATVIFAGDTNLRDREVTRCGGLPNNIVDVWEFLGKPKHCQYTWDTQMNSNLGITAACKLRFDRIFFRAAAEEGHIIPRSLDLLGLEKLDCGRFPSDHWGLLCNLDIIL
Put plainly: human TDP2 enzyme inhibitors, dose response, biochemical, epi absorbance, IC50 (AID 743297).

The next assay has as its system Vero. In words: Vero cell cytotoxicity, cytotoxicity control for flavivirus capping enzyme inhibitors (AID 588742). In kind it is functional. As to conditions: Chlorocebus sabaeus.
Assay [6] addresses Heat shock protein HSP 90-alpha (Homo sapiens, UniProt P07900). In kind it is functional, organism-based.
Assay [7] is described as follows: NIH-3T3 fibroblast cytotoxicity, dose response, cytotoxicity control, cell-based, fluorescence, Alamar Blue, secondary assay (AID 2327).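 Also: NIH-3T3 mouse fibroblasts cultured with fluconazole at 8 µg/mL.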 In kind it is functional. In general terms: Alamar Blue is a resazurin reagent that responds to reducing activity.
The subject of assay [8] is Streptococcus sp. 'group A'. In words: growth inhibition of control SK(-) GAS strain, dose response, counter-screen for streptokinase expression inhibitor project, luminescence, kanamycin, BacTiterGlo, confirmation (AID 1900). Type of assay: functional, organism-based.
A short description of assay [9]: C. albicans growth with fluconazole, confirmation, fluorescence, retest (AID 2467). In kind it is functional, cell-based.
For another assay, the system named is Streptococcus. In words: Group A Streptococcus viability loss, dose response, counter-screen for streptokinase expression inhibitor project, luminescence, BacTiterGlo (AID 1915).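 Also: potency for reduction of bacterial viability or growth.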 In kind it is functional, organism-based.
Another assay concerns the target Paired box protein Pax-8 (Homo sapiens, UniProt Q06710). In words: inhibitors of PAX8-driven TPO luciferase reporter, dose response, RMG-I cells, cherry-pick (AID 687027).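 Also: luciferase reporter driven by Pax8 target thyroperoxidase promoter measured by SteadyGlo luminescence.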 Type of assay: functional, cell-based.

Transitional endoplasmic reticulum ATPase (Homo sapiens, UniProt P55072), sequence (P55072 whole entry): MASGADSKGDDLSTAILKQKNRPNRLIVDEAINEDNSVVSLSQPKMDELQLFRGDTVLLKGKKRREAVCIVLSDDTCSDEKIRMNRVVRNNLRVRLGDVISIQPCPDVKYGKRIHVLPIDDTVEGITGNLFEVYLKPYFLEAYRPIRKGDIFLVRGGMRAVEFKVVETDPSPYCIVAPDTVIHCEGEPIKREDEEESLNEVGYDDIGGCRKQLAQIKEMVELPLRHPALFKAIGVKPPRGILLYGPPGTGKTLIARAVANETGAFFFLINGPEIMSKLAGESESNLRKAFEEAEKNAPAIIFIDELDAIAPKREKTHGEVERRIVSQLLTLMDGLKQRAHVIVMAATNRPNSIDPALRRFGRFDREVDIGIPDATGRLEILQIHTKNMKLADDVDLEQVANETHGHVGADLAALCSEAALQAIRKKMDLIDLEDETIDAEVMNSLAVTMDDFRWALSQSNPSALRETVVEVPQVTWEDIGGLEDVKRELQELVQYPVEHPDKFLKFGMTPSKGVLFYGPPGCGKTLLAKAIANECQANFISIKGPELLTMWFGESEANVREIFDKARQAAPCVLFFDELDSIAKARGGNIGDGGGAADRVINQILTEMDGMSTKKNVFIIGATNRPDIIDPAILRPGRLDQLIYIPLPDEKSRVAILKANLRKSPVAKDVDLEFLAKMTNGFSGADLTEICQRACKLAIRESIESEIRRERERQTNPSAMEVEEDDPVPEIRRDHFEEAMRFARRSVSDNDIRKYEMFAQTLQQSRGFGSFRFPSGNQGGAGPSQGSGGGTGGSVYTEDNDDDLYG
Paired box protein Pax-8, sequence (Q06710 whole entry): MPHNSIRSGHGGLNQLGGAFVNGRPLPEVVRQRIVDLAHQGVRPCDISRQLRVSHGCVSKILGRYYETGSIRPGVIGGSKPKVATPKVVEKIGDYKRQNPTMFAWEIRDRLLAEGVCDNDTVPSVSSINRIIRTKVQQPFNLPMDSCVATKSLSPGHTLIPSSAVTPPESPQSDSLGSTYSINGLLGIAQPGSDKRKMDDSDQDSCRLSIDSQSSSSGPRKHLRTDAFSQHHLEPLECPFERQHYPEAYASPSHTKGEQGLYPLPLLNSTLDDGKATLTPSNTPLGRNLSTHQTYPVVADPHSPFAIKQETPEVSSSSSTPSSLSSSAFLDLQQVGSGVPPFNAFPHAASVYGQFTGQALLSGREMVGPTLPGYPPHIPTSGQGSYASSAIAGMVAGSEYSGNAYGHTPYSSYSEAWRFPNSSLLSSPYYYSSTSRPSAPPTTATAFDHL
Transitional endoplasmic reticulum ATPase (Homo sapiens, UniProt P55072, C522A), sequence (P55072 2-806 C522A limits assumed): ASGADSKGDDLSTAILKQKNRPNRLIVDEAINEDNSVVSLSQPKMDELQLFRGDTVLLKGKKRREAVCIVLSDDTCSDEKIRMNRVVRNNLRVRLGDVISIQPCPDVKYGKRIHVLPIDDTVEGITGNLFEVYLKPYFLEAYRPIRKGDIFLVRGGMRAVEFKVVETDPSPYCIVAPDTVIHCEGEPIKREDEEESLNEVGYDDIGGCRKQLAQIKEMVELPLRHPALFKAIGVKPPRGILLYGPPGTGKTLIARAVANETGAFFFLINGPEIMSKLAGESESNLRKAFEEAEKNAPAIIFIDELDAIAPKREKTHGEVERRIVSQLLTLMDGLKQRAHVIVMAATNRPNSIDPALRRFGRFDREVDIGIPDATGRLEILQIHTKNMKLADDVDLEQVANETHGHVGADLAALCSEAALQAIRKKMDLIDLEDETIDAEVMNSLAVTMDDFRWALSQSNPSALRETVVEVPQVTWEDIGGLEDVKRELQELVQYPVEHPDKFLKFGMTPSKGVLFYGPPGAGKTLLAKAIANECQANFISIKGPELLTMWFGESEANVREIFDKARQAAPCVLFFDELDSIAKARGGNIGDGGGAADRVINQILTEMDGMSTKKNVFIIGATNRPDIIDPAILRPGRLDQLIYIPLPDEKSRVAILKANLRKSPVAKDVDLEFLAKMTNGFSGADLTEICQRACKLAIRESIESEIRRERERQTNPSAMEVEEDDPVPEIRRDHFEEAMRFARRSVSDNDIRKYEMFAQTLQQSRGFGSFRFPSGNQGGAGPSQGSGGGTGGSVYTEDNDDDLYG

As a reminder, the IC50 is the point on the concentration scale where inhibition reaches its midpoint. As usually defined, the AC50 is the midpoint of the concentration-response curve, whichever way the signal moves. Take `N#Cc1c(N2CCCCC2)nc(N)c2c(N)nc(SCC(=O)O)cc12`: the IC50 in assay [1] was > 50 µM (not active); in assay [2], > 50 µM (not active); in [3], 8.26 µM (active). Moreover, the AC50 in [4] is 24.9 µM (active).
In the case of `CC1(C)Cc2ccccc2C2=NNC(=O)C2=N1`, the AC50 in assay [4] was 0.343 µM (active). Moreover, the IC50 in assay [5] was 22.9 µM (inactive).
As usually defined, the CC50 is the concentration that lowers cell viability or growth by half. With `CCc1ccc(S(=O)(=O)Nc2cc(SCC(=O)O)c(O)c3ccccc23)cc1`, the AC50 in assay [4] is 0.77 µM (active). The CC50 in the assay with Vero was 33.6 µM (active). In assay [5], the IC50 was 85.9 µM (inactive).
In the case of `O=[N+]([O-])c1ccc(Sc2cccc[n+]2[O-])c2nonc12`, the AC50 in [4] was 5.25 µM (active); in assay [6], 3.91 µM (active).
For orientation: EC50 means the concentration at which the effect is half-maximal. Consider `CCCC(=O)NC(c1ccc(C(C)C)cc1)c1ccc2cccnc2c1O` (stereo not given), for which the EC50 in [7] was 22.1 µM (inconclusive); in assay [8] it was 2.55 µM (active); in [9] it was 0.621 µM (active); with Streptococcus it was 6.95 µM (active). Also, at Paired box protein Pax-8, the AC50 was 1.21 µM (active).
Consider `Oc1c(Cl)cc(Cl)c(Cl)c1Cc1c(O)c(Cl)cc(Cl)c1Cl` [HEXACHLOROPHENE], for which the EC50 is 16.2 µM (active) in assay [7], 0.244 µM (active) in assay [8], > 38 µM (not active) in [9] and 0.262 µM (active) in the assay on Streptococcus. The IC50 in assay [1] is > 50 µM (not active); in [2], 5.49 µM (active). Moreover, the values for the AC50 (in assay [4]; in assay [6]; at Paired box protein Pax-8) were 1.81 µM (active), 0.77 µM (active) and 3.3 µM (active), respectively.
